# Assay results from ChEMBL document CHEMBL5465560, “Selectivity Literature for EUbOPEN Chemogenomic Library” (2024).
# Key:
# [1] = Selectivity interaction (KinomeScan (DiscoverX)) EUB0001049a PKNB; details: at 1 µM
# [2] = target: Interferon-induced, double-stranded RNA-activated protein kinase (Homo sapiens) (UniProt P19525); assay: Selectivity interaction (KinomeScan (DiscoverX)) EUB0001079a EIF2AK2; details: at 1 µM
# [3] = target: T1, Interleukin-1 receptor-associated kinase 3 (Homo sapiens) (UniProt Q9Y616); assay: Selectivity interaction (ActivX KiNativ screen (kinase selectivity in THP-1 cell lysates)) EUB0000639a IRAK3; type: subcellular; details: lysate, at 0.2 µM
# T1 sequence (whole entry): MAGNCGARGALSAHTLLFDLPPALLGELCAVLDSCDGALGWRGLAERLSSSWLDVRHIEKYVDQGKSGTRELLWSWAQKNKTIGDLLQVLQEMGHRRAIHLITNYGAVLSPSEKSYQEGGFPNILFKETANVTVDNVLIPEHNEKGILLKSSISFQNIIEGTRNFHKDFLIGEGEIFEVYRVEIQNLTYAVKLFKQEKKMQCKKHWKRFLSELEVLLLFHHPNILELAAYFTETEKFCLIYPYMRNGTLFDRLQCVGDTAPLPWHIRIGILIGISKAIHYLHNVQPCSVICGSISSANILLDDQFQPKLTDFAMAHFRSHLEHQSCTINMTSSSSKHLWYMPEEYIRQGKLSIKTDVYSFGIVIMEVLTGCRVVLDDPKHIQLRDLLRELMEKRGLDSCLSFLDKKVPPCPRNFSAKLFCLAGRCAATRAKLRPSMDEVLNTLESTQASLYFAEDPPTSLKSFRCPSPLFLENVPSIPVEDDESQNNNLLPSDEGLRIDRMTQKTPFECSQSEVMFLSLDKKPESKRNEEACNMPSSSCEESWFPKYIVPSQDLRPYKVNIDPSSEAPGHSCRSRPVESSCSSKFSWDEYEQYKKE
# [4] = target: Rho-associated protein kinase 2 (Homo sapiens, UniProt O75116); assay: Selectivity interaction (KinomeScan (DiscoverX)) EUB0000618a ROCK2; details: at 10 µM
# Chain of Rho-associated protein kinase 2 (O75116 whole entry, looked up): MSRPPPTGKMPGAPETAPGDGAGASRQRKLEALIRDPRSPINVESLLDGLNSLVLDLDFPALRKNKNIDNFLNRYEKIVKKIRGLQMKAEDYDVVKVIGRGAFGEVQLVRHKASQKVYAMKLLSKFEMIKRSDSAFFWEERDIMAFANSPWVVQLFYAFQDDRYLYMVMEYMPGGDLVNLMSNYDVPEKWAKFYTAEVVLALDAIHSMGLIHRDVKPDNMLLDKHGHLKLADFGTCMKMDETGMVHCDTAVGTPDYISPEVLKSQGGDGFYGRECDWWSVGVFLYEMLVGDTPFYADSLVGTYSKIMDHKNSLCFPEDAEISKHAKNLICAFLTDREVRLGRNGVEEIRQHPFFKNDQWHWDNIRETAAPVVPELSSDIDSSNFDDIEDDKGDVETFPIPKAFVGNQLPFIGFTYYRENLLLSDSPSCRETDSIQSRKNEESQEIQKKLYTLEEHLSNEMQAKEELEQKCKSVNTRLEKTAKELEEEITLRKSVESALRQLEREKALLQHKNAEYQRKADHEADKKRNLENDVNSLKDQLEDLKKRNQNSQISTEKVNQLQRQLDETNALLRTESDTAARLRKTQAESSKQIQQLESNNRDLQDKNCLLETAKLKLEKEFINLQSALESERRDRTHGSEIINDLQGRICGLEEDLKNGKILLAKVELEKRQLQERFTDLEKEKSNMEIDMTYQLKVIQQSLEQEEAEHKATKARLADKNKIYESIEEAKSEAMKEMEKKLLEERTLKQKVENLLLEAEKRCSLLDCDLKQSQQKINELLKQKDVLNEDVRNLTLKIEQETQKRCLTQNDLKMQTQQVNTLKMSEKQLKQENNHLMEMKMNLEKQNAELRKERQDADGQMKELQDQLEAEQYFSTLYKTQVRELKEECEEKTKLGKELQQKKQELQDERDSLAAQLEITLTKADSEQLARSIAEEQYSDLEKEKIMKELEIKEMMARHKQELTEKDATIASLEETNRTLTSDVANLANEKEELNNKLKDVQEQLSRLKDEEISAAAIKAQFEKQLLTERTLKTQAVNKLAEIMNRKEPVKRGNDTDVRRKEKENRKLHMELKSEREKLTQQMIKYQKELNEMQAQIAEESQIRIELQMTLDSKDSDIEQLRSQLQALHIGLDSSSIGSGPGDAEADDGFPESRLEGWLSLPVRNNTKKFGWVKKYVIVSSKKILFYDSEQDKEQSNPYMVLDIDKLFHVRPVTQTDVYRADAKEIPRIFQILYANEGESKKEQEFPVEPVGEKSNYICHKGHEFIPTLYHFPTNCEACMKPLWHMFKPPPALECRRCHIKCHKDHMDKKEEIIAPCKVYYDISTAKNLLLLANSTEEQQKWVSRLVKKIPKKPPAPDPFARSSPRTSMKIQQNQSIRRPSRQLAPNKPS
# [5] = target: T2, Ephrin type-A receptor 3 (Homo sapiens) (UniProt P29320); assay: Selectivity interaction (SelectScreen profiling (Invitrogen)) EUB0000607a EPHA3; details: at 2 µM
# T2 sequence (whole entry): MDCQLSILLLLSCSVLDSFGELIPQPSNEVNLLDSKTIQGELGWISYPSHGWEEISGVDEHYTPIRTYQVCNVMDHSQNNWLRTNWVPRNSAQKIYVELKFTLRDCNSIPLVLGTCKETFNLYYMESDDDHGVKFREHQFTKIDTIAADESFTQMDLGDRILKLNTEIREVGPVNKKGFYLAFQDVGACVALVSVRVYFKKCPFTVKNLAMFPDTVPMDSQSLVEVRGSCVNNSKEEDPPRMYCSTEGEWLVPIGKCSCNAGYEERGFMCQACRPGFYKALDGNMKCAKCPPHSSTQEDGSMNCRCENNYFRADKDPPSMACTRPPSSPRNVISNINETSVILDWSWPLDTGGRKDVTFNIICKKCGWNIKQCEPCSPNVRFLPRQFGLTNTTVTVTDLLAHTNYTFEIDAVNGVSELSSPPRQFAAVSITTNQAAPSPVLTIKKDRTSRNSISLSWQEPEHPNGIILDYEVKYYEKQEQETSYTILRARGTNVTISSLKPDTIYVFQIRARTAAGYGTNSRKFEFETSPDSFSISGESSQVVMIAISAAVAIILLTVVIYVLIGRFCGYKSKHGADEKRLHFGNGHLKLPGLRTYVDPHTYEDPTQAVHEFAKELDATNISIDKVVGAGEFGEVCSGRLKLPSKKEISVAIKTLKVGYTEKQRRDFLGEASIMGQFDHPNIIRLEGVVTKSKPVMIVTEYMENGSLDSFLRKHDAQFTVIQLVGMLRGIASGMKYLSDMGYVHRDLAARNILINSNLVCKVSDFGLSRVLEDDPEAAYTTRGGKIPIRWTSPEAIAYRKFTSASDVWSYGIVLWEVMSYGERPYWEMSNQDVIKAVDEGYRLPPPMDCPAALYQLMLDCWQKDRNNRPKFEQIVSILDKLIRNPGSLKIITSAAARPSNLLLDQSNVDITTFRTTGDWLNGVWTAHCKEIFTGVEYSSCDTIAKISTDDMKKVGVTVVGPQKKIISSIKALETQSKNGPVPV
# [6] = target: Glutamate receptor ionotropic, NMDA 1 (Homo sapiens) (UniProt Q05586); assay: Selectivity interaction (Panel of kinases, GPCRs, ion channels and transporters (enzymatic assay)) EUB0000223bCl GRIN1
# [7] = target: Serine/threonine-protein kinase PAK 1 (Homo sapiens) (UniProt Q13153); assay: Selectivity interaction (Kinase panel (Z-LYTE Assay)) EUB0001632a PAK1; details: at 10 µM
# Chain of Serine/threonine-protein kinase PAK 1 (Homo sapiens) (Q13153 whole entry): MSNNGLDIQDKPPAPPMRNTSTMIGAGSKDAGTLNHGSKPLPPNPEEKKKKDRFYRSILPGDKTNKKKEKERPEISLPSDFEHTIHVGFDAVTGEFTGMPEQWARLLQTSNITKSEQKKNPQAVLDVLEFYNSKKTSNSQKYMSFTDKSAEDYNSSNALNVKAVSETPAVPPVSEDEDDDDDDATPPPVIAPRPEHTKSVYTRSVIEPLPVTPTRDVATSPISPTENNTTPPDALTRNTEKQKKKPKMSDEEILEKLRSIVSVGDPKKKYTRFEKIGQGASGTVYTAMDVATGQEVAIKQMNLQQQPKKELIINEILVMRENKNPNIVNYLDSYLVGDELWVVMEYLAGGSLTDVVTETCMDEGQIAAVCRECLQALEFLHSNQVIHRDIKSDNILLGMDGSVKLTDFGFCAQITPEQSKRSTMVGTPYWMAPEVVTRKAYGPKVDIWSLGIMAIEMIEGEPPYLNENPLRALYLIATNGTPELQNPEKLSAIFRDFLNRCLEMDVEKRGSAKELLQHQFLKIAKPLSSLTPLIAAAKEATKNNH
# [8] = target: T3, Mitogen-activated protein kinase 15 (Homo sapiens) (UniProt Q8TD08); assay: Selectivity interaction (ProQinase) EUB0000171b MAPK15
# T3 sequence (whole entry): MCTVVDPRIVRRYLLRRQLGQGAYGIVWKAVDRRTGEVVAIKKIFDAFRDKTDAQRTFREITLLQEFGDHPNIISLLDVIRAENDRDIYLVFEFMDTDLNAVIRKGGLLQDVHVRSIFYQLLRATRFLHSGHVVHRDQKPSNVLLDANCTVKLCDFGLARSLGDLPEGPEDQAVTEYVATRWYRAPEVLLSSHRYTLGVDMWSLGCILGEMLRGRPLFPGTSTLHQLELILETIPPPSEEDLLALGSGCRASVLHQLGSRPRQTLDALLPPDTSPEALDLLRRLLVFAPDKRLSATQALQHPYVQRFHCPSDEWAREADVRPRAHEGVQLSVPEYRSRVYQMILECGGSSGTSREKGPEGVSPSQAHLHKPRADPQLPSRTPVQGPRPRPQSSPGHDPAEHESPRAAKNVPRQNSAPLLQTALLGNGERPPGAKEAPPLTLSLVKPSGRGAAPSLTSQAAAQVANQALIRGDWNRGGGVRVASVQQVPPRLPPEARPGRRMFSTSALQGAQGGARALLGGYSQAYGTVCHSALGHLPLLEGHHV
# Chain of Interferon-induced, double-stranded RNA-activated protein kinase (Homo sapiens) (P19525 whole entry): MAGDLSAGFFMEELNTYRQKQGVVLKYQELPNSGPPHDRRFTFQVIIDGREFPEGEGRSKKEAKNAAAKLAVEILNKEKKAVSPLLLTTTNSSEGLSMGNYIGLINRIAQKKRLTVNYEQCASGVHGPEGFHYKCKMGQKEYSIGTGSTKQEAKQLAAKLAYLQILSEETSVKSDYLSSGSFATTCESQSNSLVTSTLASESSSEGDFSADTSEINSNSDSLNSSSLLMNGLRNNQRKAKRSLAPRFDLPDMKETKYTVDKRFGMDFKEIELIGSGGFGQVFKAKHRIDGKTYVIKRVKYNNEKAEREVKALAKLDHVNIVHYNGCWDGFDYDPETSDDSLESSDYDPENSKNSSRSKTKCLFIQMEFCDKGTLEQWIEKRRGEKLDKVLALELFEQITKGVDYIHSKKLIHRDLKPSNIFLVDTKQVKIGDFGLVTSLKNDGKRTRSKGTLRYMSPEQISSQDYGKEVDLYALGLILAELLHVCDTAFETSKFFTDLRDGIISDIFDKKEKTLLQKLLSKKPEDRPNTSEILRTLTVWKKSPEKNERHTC
smiles,measurement,setting,value
COc1cc(Nc2nc(C)cc(-c3cnn4nc(OC)ccc34)n2)cc(C(F)(F)F)c1,% of control,[1],71%
Nc1cnc(N2CCc3cc(S(=O)(=O)Nc4c(F)cc(Cl)cc4F)cc(N4CCCC4=O)c32)nc1 [TP-020n],% of control,[2],41%
CC[C@@H]1[C@H](F)C(=O)N[C@@H]1COc1nccc2cc(C(N)=O)c(OC)cc12 [ZIMLOVISERTIB],% of inhibition,[3],34%
O[C@H]1CC[C@H](Nc2ncc3nc(Nc4c(F)cc(F)cc4F)n([C@H]4CCOC4)c3n2)CC1,% of control,[4],100%
CNC(=O)Nc1ccc(-c2nc(N3CC4CCC(C3)O4)c3cnn(C4CCC5(CC4)OCCO5)c3n2)cc1,% of inhibition,[5],4%
COc1cc(C(=O)N2CC[C@@H](O)[C@@H](N)C2)cc2nc(-c3cc4ccccc4n3CC3CC3)n(C)c12,pXC50,[6],4.8 M
Cn1cc(-n2cnc3c(NCc4nc5cc(Cl)c(Cl)cc5[nH]4)nc(N4CCOCC4)nc32)cn1,% of control,[7],-0.498%
C=CC(=O)Nc1cccc(C(=O)Nc2ccc(Nc3cc(-c4[nH]c(SC)nc4C)ccn3)cc2)c1,% of control,[8]; at 1 µM,66%
same,% of control,[8]; at 5 µM,31%
